Data set [1] is described as follows: Hydrolysis kinetic studies by UV-Vis spectroscopy. In kind it is physicochemical. Also on record: key: —: no hydrolysis observed by UV-VIS. To be noted: 298 K, methanol stock diluted with water. Here is the method: Ultraviolet and Visible (UV-Vis) Spectroscopy: A Perkin-Elmer Lambda-16 UV-Vis spectrophotometer was used with 1-cm path-length quartz cuvettes (0.5 mL) and a PTP1 Peltier temperature controller. Spectra were processed using UVWinlab software for Windows' 95.
Kinetic Studies: Aliquots of stock solutions of the complexes to be tested (4-10 mM) in methanol were diluted to 500 μL with water, and the absorbance at selected wavelengths (determined by hydrolysis in an 19:1 mixture of water and methanol—see table 1 (λ)) was then recorded at 6 to 20 second intervals depending on the hydrolysis rate of each complex at 298 K. The hydrolysis rate constant kH2O for each complex was determined by computer fit of the absorbance/time data for each complex to the first-order rate equation (eq. 1), A=C0+C1e^−kt (1) where C0 and C1 are computer-fitted constants, and A is the absorbance corresponding to time t, and the results are reported in table 1 as the half life (t1/2). Cytoxicity Studies

The test system of data set [2] is A549 (human lung carcinoma, ECACC 86012804). In words: Cytotoxicity A549, sulforhodamine B. In kind it is cell-based. To be noted: 24 h exposure, then 96 h in fresh medium, SRB. How it is done:
Cell Line A549 (human lung carcinoma, ECACC 86012804) was maintained in medium comprising DMEM (Sigma) with 10% Fetal Bovine Serum (Invitrogen), 2 mM L-Glutamine (Invitrogen) and 1% Penicillin/Streptomycin (Invitrogen), in T-75 flasks (Costar). Cells were passaged at approximately 70-90% confluence (1:8 dilution) using 0.25% Trypsin/EDTA (Invitrogen).
(§1) Both cell lines were incubated at 37° C., 5% CO2, in high humidity.
(§2) A2780 carcinoma cells were seeded (150 μL) into 96 well plates (Nunc Maxisorp) at 5000 (±10%) cells per well and incubated at 37° C., 5% CO2 in high humidity for 48 hours. A549 carcinoma cells were seeded (150 μL) into 96 well plates (Nunc Maxisorp) at 2000 (±10%) cells per well and incubated at 37° C., 5% CO2 in high humidity for 24 hours.
(§3) The compounds to be tested were solubilised by sonication in DMSO (Fisher Scientific) to provide 20 mM solutions. Compounds were serially diluted with DMSO before diluting in cell culture medium to give concentrations four-fold greater than the final concentrations required in the assay. The dilutions of compound in culture medium were added to the cell plates (50 μL) in triplicates to achieve final concentrations of 100 μM, 50 μM, 10 μM, 5 μM, 1 μM and 0.1 μM. The final DMSO concentration in each well was 0.5% (v/v). The plates were incubated for 24 hours at 37° C., 5% CO2, in high humidity
After 24 hours incubation, the cells were washed (200 μL) twice with sterile phosphate buffered Saline (Sigma) and the cell culture medium replenished (200 μL). Plates were incubated at 37° C., 5% CO2, in high humidity for 96 hours. […] Dye was re-solubilised in (200 μL) 10 mM Tris buffer (Fisher Scientific) and the absorbance of each well read at both 565 nm and 690 nm using a BMG Fluorostar microplate reader. The reading at 690 nm was subtracted from the 565 nm reading, and the IC50 values determined by plotting the corrected absorbance value Vs. the compound concentration in the wells (XLfit version 4.0, ID Business Solutions Ltd). […]

Data set [3] has as its system A2780 cells. Kind of data set: Cytotoxicity A2780 (1st method), cell counting. In kind it is cell-based, human. As to conditions: 24 h cell exposure, cells counted on day 7. How it is done:
A2780 (1st Method): A2780 cells were plated on day zero, and the complexes to be tested were added on day 3. The complex was removed on day 4 (i.e., 24 h cell exposure), and after growth in fresh medium in the absence of drug, the cells were counted on day 7. The complexes were stored in the dark at 277 K as a precaution against photochemical decomposition.

Data set [4] deals with A2780 (human ovarian carcinoma, ECACC 93112519). In words: Cytotoxicity A2780 (2nd method), sulforhodamine B. As to conditions: 24 h exposure, then 96 h in fresh medium, SRB. In kind it is cell-based. Here is the method: A2780 (2nd method) and A549: Cell line A2780 (human ovarian carcinoma, ECACC 93112519) was maintained in medium comprising RPMI-1640 (Sigma) with 5% Fetal Bovine Serum (Invitrogen), 2 mM L-Glutamine (Sigma) and 1% Penicillin/Streptomycin (Invitrogen), in T-75 flasks (Costar). Cells were passaged at approximately 75-90% confluence (1:8 dilution) using 0.25% Trypsin/EDTA (Invitrogen)
as §1, §2, §3
After 24 hours incubation, the cells were washed (200 μL) twice with sterile phosphate buffered Saline (Sigma) and the cell culture medium replenished (200 μL). Plates were incubated at 37° C., 5% CO2, in high humidity for 96 hours. After the incubation surviving cells were fixed by the addition of 50% (w/v) Trichloroacetic acid (50 μL) and incubated at 4° C. for 1 hour. Plates were washed three times with excess tap water and air-dried. Cells were dyed by the addition of (100 μL) 0.4% sulforhodamine B (Sigma) solution to the plates followed by five washes (200 μl) with 1% acetic acid solution to remove excess dye before air-drying. Dye was re-solubilised in (200 μL) 10 mM Tris buffer (Fisher Scientific) and the absorbance of each well read at both 565 nm and 690 nm using a BMG Fluorostar microplate reader. The reading at 690 nm was subtracted from the 565 nm reading, and the IC50 values determined by plotting the corrected absorbance value Vs. the compound concentration in the wells (XLfit version 4.0, ID Business Solutions Ltd). These are shown below in table 1

Data on nine compounds can be found in patent publication US20080096846A1, “Arene Ruthenium (ll) Compounds And Their Use In Cancer Therapy” (priority 2004, published 2008).

For “[(η^6-C6(CH3)6)Ru(en)(SPh)][PF6] [Compound 4]”, the “t1/2 (hydrolysis), dash with footnote a” value in data set [1] is given as “—^a”. In addition, the results for the IC50 in data set [2], in data set [3] and in data set [4] were 38 µM, 23 µM and 23 µM, respectively.
Consider “[(η^6-C6(CH3)6)Ru(en)(p-cyanopyridine)][PF6]2 [Compound 8]”, for which, in data set [3], the IC50 came to 6 µM.
Same read-out and setting: the result for `Cc1c(C)c(C)c(C)c(C)c1C.F[P-](F)(F)(F)(F)F.NCCN.[Cl][Ru+]` [Compound C2, [(η^6-C6(CH3)6)Ru(en)Cl][PF6], reference compound] reads 9 µM.
As to “[(η^6-C6(CH3)6)Ru(en)(SCN)][PF6]2 [Compound 3]”, in data set [4], inhibition was half-maximal at 24 µM (IC50).
With “[(η^6-C6H5C6H5)Ru(en)N3][PF6] [Compound 1]”, the figures for the IC50 in data set [2], in data set [3] and in data set [4] were 8.5 µM, 4 µM and 14 µM, respectively.
With “[(η^6-C6(CH3)6)Ru(en)(3-methylpyridine)][PF6]2 [Compound 9]”, in data set [1], the “t1/2 (hydrolysis), dash with footnote a” value is on record as “—^a”. Besides, the half-inhibitory concentration (IC50) in data set [3] and in data set [4] was 50 µM in each case.
Consider “[(η^6-C6(CH3)6)Ru(en)(pyridine)][PF6]2 [Compound 2]”, for which the “t1/2 (hydrolysis), dash with footnote a” value in data set [1] is “—^a”.
Consider “[(η^6-C6(CH3)6)Ru(en)(3,5-dichloropyridine)][PF6]2 [Compound 6]”, for which the IC50 in data set [3] was 23 µM; in data set [4], 18 µM.
Take `F[P-](F)(F)(F)(F)F.NCCN.[Cl][Ru+].c1ccc(-c2ccccc2)cc1` [Compound C1, [(η^6-C6H5C6H5)Ru(en)Cl][PF6], reference compound]: the IC50 in data set [2] was determined as 11 µM; in data set [3], 8 µM; in data set [4], 6.5 µM.

One may read the IC50 as the concentration that inhibits the measured activity by half.
